Laboratory results: patent US10221139B2, “Inhibitors of histone demethylases” (Gilead Sciences, Inc., priority 2012, dated 2019)
pIC50: −log10 of the molar value.

What was measured:
Assay type in all cases: cell-based
GASC1 (KDM4C) = target: T1, GASC1 (KDM4C) (Homo sapiens, UniProt Q9H3R0); test: Immunofluorescence assay in U2OS cells transfected with pCMVHA JMJD2C (H3K9me3 mark); conditions: 20 hours
T1 construct: Full length; host or cells: U2OS
T1 sequence (Q9H3R0 1-1056): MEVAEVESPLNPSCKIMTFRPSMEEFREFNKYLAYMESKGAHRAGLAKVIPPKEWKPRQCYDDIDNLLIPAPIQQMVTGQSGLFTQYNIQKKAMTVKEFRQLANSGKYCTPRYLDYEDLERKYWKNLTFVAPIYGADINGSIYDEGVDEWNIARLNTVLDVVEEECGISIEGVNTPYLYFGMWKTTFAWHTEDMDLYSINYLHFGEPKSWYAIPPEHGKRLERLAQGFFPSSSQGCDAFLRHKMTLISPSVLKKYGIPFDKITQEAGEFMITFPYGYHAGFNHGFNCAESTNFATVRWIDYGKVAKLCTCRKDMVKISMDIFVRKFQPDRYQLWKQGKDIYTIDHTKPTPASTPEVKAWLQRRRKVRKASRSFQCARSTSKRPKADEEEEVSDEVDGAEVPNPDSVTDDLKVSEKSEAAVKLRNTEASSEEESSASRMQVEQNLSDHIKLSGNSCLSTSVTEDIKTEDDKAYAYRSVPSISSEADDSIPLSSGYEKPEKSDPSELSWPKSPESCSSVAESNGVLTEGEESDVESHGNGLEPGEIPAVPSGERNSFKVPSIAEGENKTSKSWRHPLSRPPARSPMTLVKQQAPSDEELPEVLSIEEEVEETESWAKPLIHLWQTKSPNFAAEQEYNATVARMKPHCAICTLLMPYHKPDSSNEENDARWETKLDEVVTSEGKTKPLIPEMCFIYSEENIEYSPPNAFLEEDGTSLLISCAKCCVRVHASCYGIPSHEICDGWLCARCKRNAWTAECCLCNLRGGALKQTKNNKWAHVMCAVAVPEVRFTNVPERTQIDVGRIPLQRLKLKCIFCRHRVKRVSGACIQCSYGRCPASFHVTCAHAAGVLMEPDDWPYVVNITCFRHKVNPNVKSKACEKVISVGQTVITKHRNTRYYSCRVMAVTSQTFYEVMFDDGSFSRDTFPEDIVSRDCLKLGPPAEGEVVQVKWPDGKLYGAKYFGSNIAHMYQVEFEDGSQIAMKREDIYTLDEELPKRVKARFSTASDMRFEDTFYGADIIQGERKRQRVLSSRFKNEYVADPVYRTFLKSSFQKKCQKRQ
Protocol: (§1) U2OS cells were seeded 24 hours before transfection. Transfection was performed with Fugene HD transfection reagent as recommended by the manufacturer. 6 hours after transfection, the cells were harvested and seeded into multi well plates into media containing compound. The media used was DMEM containing 5% FBS and pen/strep. 20 hours after incubation of cells with compounds, the cells were washed once in PBS, harvested by fixation with formaldehyde 4% aqueous solution, and washed 2 times in PBS. Subsequently, the cells were permeabilized in PBS with 0.2% Triton X-100 for 10 min at room temperature. Blocking was performed in PBS with 0.2% Triton X-100 and 5% FBS for 45 min at room temperature. The cells were incubated with primary antibodies diluted 1 μg/ml in blocking solution over night at 4° C. The primary antibodies used in the assays were HA.11 (Covance, MMS-101P) and the antibody detecting the mark specified in the Table 6 below. After incubation with primary antibodies, the cells were washed 3 times with PBS, incubated with secondary antibodies diluted 1:1000 (Alexa fluor 594 goat anti rabbit IgG, Invitrogen, A11012; Alexa flour 488 donkey anti mouse IgG, Invitrogen, A21202) and Hoechst, 20 μg/ml (Sigma, 33342) in blocking solution, and washed again 3 times with PBS. Finally, PBS was added and high throughput imaging and analysis were performed by an IN Cell Analyzer 1000 (GE Healthcare). The robot software analyzed individual cells and divided these into HA^+ (transfected cells) and HA^− (non-transfected cells). The IC50 values in Table 7 below were based on an average measure of the staining of the mark specified in the Table 6 below in the transfected cells.

PLU1 (KDM5B) = target: T2, PLU1 (KDM5B) (Homo sapiens, UniProt Q9UGL1); test: Immunofluorescence assay in U2OS cells transfected with pCMVHA PLU1 (H3K4me2 mark); conditions: 20 hours
T2 construct: (1-752); host or cells: U2OS
T2 sequence (Q9UGL1 1-752): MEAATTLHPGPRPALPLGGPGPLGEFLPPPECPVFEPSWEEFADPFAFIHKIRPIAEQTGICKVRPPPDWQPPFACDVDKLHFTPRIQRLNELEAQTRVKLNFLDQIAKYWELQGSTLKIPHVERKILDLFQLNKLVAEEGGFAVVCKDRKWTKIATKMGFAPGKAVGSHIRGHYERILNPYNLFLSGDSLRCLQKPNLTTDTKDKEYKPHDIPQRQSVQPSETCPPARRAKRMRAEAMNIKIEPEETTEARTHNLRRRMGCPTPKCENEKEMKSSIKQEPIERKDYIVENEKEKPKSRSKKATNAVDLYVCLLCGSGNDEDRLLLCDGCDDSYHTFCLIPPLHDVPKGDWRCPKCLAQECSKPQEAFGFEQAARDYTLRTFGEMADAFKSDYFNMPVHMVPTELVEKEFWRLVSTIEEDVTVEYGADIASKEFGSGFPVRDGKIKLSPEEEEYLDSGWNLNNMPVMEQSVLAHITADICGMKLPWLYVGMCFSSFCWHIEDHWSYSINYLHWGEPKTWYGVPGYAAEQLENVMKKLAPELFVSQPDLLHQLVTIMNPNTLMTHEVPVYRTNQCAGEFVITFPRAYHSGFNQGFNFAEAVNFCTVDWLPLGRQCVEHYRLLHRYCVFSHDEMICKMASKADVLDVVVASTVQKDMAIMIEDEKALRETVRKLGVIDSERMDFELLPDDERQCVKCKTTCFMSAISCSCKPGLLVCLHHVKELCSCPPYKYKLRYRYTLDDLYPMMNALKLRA
Protocol: as §1

[1] = test system: demethylation of H3K4 (H3K4me3 mark) in U2OS cells; test: Histone lysine demethylase immunofluorescence assay, non-transfected U2OS cells (H3K4me3 staining); conditions: Homo sapiens, 20 hours
Protocol: Histone Lysine Demethylase Immunofluorescence Assays for IC50 Value Determination, Non-Transfected Cells
U2OS cells were harvested and seeded into multi well plates into media containing compound. The media used was DMEM containing 5% FBS and pen/strep. 20 hours after incubation of cells with compounds, the cells were washed once in PBS, harvested by fixation with formaldehyde 4% aqueous solution, and washed 2 times in PBS. Subsequently, the cells were permeabilized in PBS with 0.2% Triton X-100 for 10 min at room temperature. Blocking was performed in PBS with 0.2% Triton X-100 and 5% FBS for 45 min at room temperature. The cells were incubated with αH3K4me3 primary antibody (Cell Signaling, #9751S) diluted 1:1000 in blocking solution over night at 4° C. After incubation with primary antibody, the cells were washed 3 times with PBS, incubated with secondary antibody diluted 1:1000 (Alexa fluor 594 goat anti rabbit IgG, Invitrogen, A11012) and Hoechst, 20 μg/ml (Sigma, 33342) in blocking solution, and washed again 3 times with PBS. Finally, PBS was added and high throughput imaging and analysis were performed by an IN Cell Analyzer 1000 (GE Healthcare). The IC50 values seen in Table 4 were based on an average measure of the staining of the H3K4me3 mark in cells.

Structure (SMILES) | pIC50 (GASC1 (KDM4C)) | pIC50 (PLU1 (KDM5B)) | pIC50 [1]
O=C(O)c1ccnc(CNCC[C@@H]2CCCN2Cc2ccccc2)c1 [2-[({2-[(2S)-1-benzylpyrrolidin-2-yl]ethyl}amino)methyl] pyridine-4-carboxylic acid] | < 4.30 | 4.30 to 6.00 | 
CCN(CCN(C)C)C(=O)CNCc1cc(C(=O)N2CCOC2=O)ccn1 [drawing 248, N-[2-(dimethylamino)ethyl]-N-ethyl-2-({[4-(2-oxo-1,3-oxazolidine-3-carbonyl)pyridin-2-yl]methyl}amino)acetamide] |  |  | 4.30 to 6.00
CCN(CCN(C)C)C(=O)CNCc1cc(C(=O)OC(CCNC(=O)C(F)(F)F)CC(=O)OC(C)C)ccn1 (centres unmarked) [drawing 250, propan-2-yl 3-(2-{[({[2-(dimethylamino)ethyl](ethyl)carbamoyl}methyl)amino]methyl}pyridine-4-carbonyloxy)-5-(trifluoroacetamido)pentanoate] |  |  | > 6.00
CCN(CCN(C)C)C(=O)CNCc1cc(C(=O)OCC(F)(F)F)ccn1 [drawing 251, 2,2,2-trifluoroethyl 2-{[({[2-(dimethylamino)ethyl](ethyl)carbamoyl}methyl)amino]methyl}pyridine-4-carboxylate] |  |  | > 6.00
CCN(CCN(C)C)C(=O)CNCc1cc(C(=O)Nc2ncco2)ccn1 [drawing 252, 2-{[({[2-(dimethylamino)ethyl](ethyl)carbamoyl}methyl)amino]methyl}-N-(1,3-oxazol-2-yl)pyridine-4-carboxamide] |  |  | 4.30 to 6.00
CCN(CCN(C)C)C(=O)CNCc1cc(C(=O)Oc2c(OC(C)C)cccc2OC(C)C)ccn1 [drawing 253, 2,6-bis(propan-2-yloxy)phenyl 2-{[({[2-(dimethylamino)ethyl](ethyl)carbamoyl}methyl)amino]methyl}pyridine-4-carboxylate] |  |  | 4.30 to 6.00
CCN(CCN(C)C)C(=O)CNCc1cc(C(=O)Nc2nccn2C)ccn1 [drawing 254, 2-{[({[2-(dimethylamino)ethyl](ethyl)carbamoyl}methyl)amino]methyl}-N-(1-methyl-1H-imidazol-2-yl)pyridine-4-carboxamide] |  |  | 4.30 to 6.00
CCN(CCN(C)C)C(=O)CNCc1cc(C(=O)OCCF)ccn1 [drawing 255, 2-fluoroethyl 2-{[({[2-(dimethylamino)ethyl](ethyl)carbamoyl}methyl)amino]methyl}pyridine-4-carboxylate] |  |  | > 6.00
CCN(CCN(C)C)C(=O)CNCc1cc(C(=O)OCC(F)F)ccn1 [drawing 256, 2,2-difluoroethyl 2-{[({[2-(dimethylamino)ethyl](ethyl)carbamoyl}methyl)amino]methyl}pyridine-4-carboxylate] |  |  | > 6.00
O=C(O)c1ccnc(CNCCCn2ccnc2)c1 [drawing 296, 2-({[3-(1H-imidazol-1-yl)propyl]amino}methyl) pyridine-4-carboxylic acid] | < 4.30 | 4.30 to 6.00 | 
CN(C)CCN(C)Cc1cc(C(=O)O)ccn1 [drawing 301, 2-({[2-(dimethylamino)ethyl](methyl)amino}methyl)pyridine-4-carboxylic acid] | < 4.30 | < 4.30 | 
C#CCN(C)Cc1cc(C(=O)O)ccn1 [drawing 302, 2-{[methyl(prop-2-yn-1-yl)amino]methyl}pyridine-4-carboxylic acid] | < 4.30 | < 4.30 | 
O=C(O)c1ccnc(CNCc2ccco2)c1 [drawing 303, 2-{[(furan-2-ylmethyl)amino]methyl}pyridine-4-carboxylic acid] | 4.30 to 6.00 |  | 
Cn1c(CNCc2cc(C(=O)O)ccn2)nc2ccccc21 [drawing 307, 2-({[(1-methyl-1H-1,3-benzodiazol-2-yl)methyl)amino}methyl) pyridine-4-carboxylic acid] | < 4.30 | 4.30 to 6.00 | 

Results, then the compound that gave them:

pIC50 (GASC1 (KDM4C)) | pIC50 (PLU1 (KDM5B)) | pIC50 [1] | Structure (SMILES)
< 4.30 | 4.30 to 6.00 |  | CN(C)CCCCNCc1cc(C(=O)O)ccn1 [2-({[4-(dimethylamino)butyl]amino}methyl)pyridine-4-carboxylic acid]
4.30 to 6.00 | 4.30 to 6.00 |  | CN(C)CCNCc1cc(C(=O)O)ccn1 [drawing 297, 2-({[2-(dimethylamino)ethyl]amino}methyl)pyridine-4-carboxylic acid]
< 4.30 | < 4.30 |  | O=C(O)c1ccnc(CNC[C@@H](O)CO)c1 [drawing 298, 2-({[(2R)-2,3-dihydroxypropyl]amino}methyl)pyridine-4-carboxylic acid]
< 4.30 | 4.30 to 6.00 |  | O=C(O)c1ccnc(CNCC2CC2)c1 [drawing 299, 2-{[(cyclopropylmethyl)amino]methyl}pyridine-4-carboxylic acid]
4.30 to 6.00 | < 4.30 |  | O=C(O)c1ccnc(CNCC(=O)N2CCCC2)c1 [drawing 305, 2-({[2-oxo-2-(pyrrolidin-1-yl)ethyl]amino}methyl) pyridine-4-carboxylic acid]
4.30 to 6.00 | < 4.30 |  | CCCCN(C)C(=O)CNCc1cc(C(=O)O)ccn1 [drawing 306, 2-[({[butyl(methyl)carbamoyl]methyl}amino)methyl] pyridine-4-carboxylic acid]
< 4.30 |  |  | CN(CCC(N)=O)C(=O)CNCc1cc(C(=O)O)ccn1 [drawing 311, 2-[({[(2-carbamoylethyl)(methyl)carbamoyl]methyl}amino)methyl]pyridine-4-carboxylic acid]
